# Reference: the supplement of paper PMC10307832
# Columns and labels:
# Assay in all cases: relative viability (nuclei count vs DMSO), 5 days (fraction); higher = more cells survive
# BEN = system: BEN
# Summary of the method: (§1)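 Nuclei were stained with Hoechst during a one-step fixation (final 0.05% Triton X-100, 1% formaldehyde, 1 ug/ml Hoechst) carried out 5 days after dosing, then counted on 4× images. The cells, lung cancer lines in 1536-well plates, had been dosed by pin tool the day after seeding with one drug alone or a fixed anchor-drug dose plus five library-drug doses (not always all listed) in √10 steps. Relative viability is the nuclei count in treated wells divided by that in vehicle wells, and each value is the median of duplicate plates.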
# EKVX = system: EKVX
# Summary of the method: as §1
# HCC-827 = system: HCC-827
# Summary of the method: as §1
# HOP-62 = system: HOP-62
# Summary of the method: as §1
# LCLC-103H = system: LCLC-103H
# Summary of the method: as §1
# LK-2 = system: LK-2
# Summary of the method: as §1
# LOU-NH91 = system: LOU-NH91
# Summary of the method: as §1
# LXF-289 = system: LXF-289
# Summary of the method: as §1
# NCI-H1355 = system: NCI-H1355
# Summary of the method: as §1
# NCI-H1437 = system: NCI-H1437
# Summary of the method: as §1
# NCI-H1666 = system: NCI-H1666
# Summary of the method: as §1
compound,measurement,setting,value
CCNC(=O)c1noc(-c2cc(C(C)C)c(O)cc2O)c1-c1ccc(CN2CCOCC2)cc1 [Luminespib] + C[C@]1(O)C[C@@H](c2nc(-c3ccc4ccc(-c5ccccc5)nc4c3)c3c(N)nccn32)C1 [Linsitinib] (partner 1 µM),relative viability,BEN; first compound 0.002 µM,0.955
same,relative viability,BEN; first compound 0.006325 µM,0.892
same,relative viability,BEN; first compound 0.02 µM,0.427
same,relative viability,BEN; first compound 0.06325 µM,0.627
same,relative viability,BEN; first compound 0.2 µM,0.252
same,relative viability,EKVX; first compound 0.002 µM,1
same,relative viability,EKVX; first compound 0.006325 µM,0.989
same,relative viability,EKVX; first compound 0.02 µM,0.721
same,relative viability,EKVX; first compound 0.06325 µM,0.779
same,relative viability,EKVX; first compound 0.2 µM,0.179
same,relative viability,HCC-827; first compound 0.002 µM,0.922
same,relative viability,HCC-827; first compound 0.006325 µM,0.925
same,relative viability,HCC-827; first compound 0.02 µM,0.937
same,relative viability,HCC-827; first compound 0.06325 µM,0.974
same,relative viability,HCC-827; first compound 0.2 µM,1.02
same,relative viability,HOP-62; first compound 0.002 µM,1.07
same,relative viability,HOP-62; first compound 0.006325 µM,0.958
same,relative viability,HOP-62; first compound 0.02 µM,0.945
same,relative viability,HOP-62; first compound 0.06325 µM,1.12
same,relative viability,HOP-62; first compound 0.2 µM,0.934
same,relative viability,LCLC-103H; first compound 0.002 µM,1.14
same,relative viability,LCLC-103H; first compound 0.006325 µM,0.971
same,relative viability,LCLC-103H; first compound 0.02 µM,1.1
same,relative viability,LCLC-103H; first compound 0.06325 µM,1.03
same,relative viability,LCLC-103H; first compound 0.2 µM,1.04
same,relative viability,LK-2; first compound 0.002 µM,0.747
same,relative viability,LK-2; first compound 0.006325 µM,0.522
same,relative viability,LK-2; first compound 0.02 µM,0.455
same,relative viability,LK-2; first compound 0.06325 µM,0.301
same,relative viability,LK-2; first compound 0.2 µM,0.109
same,relative viability,LOU-NH91; first compound 0.002 µM,0.913
same,relative viability,LOU-NH91; first compound 0.006325 µM,0.923
same,relative viability,LOU-NH91; first compound 0.02 µM,0.649
same,relative viability,LOU-NH91; first compound 0.06325 µM,0.393
same,relative viability,LOU-NH91; first compound 0.2 µM,0.348
same,relative viability,LXF-289; first compound 0.002 µM,0.952
same,relative viability,LXF-289; first compound 0.006325 µM,0.879
same,relative viability,LXF-289; first compound 0.02 µM,1.12
same,relative viability,LXF-289; first compound 0.06325 µM,0.711
same,relative viability,LXF-289; first compound 0.2 µM,0.151
same,relative viability,NCI-H1355; first compound 0.002 µM,0.903
same,relative viability,NCI-H1355; first compound 0.006325 µM,0.785
same,relative viability,NCI-H1355; first compound 0.02 µM,0.425
same,relative viability,NCI-H1355; first compound 0.06325 µM,0.763
same,relative viability,NCI-H1355; first compound 0.2 µM,0.81
same,relative viability,NCI-H1437; first compound 0.002 µM,1.06
same,relative viability,NCI-H1437; first compound 0.006325 µM,0.989
same,relative viability,NCI-H1437; first compound 0.02 µM,1.08
same,relative viability,NCI-H1437; first compound 0.06325 µM,0.22
same,relative viability,NCI-H1437; first compound 0.2 µM,0.0998
same,relative viability,NCI-H1666; first compound 0.002 µM,0.707
same,relative viability,NCI-H1666; first compound 0.006325 µM,0.785
